Data on 19 molecules can be found in ChEMBL document CHEMBL1140513, “Heteroatom-linked indanylpyrazines are corticotropin releasing factor type-1 receptor antagonists” (Bioorg Med Chem Lett, 2007).

The Ki is a measure of affinity in units of concentration, obtained from inhibition or displacement.

This experiment deals with T1, Corticotropin-releasing factor receptor 1 (Homo sapiens, UniProt P34998).
T1 sequence (P34998 whole entry): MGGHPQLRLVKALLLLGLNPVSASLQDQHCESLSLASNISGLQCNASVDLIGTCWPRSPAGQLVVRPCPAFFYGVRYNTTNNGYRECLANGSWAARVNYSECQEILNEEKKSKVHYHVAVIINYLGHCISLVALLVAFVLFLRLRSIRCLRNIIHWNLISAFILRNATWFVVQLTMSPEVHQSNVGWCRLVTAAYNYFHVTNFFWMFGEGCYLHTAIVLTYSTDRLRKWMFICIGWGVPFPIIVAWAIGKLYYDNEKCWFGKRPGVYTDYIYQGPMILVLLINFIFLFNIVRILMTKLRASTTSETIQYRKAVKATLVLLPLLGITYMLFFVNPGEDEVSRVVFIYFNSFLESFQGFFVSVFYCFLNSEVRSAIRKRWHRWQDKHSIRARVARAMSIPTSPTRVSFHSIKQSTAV
The experiment can be described thus: Displacement of [125I]Tyr-o-CRF from CRF1 receptor in IMR32 cells. It counts as cell-based, IMR-32. A general note: Displacement assays read how much labelled ligand stays bound in the presence of the test substance.
For `CCc1nc(NC(CC)CC)c(CC)nc1Nc1ccc(Cl)cc1Cl`, the Ki is greater than 10 µM.

Take `CCc1nc(NC(CC)CC)c(CC)nc1Nc1ccc([N+](=O)[O-])cn1`: the Ki is greater than 10 µM.

For the molecule `CCO[C@H]1Cc2ccccc2[C@H]1Nc1nc(CC)c(Oc2cc(C)ccn2)nc1CC`, the Ki came to 0.035 µM.

On to `CCc1nc(NC(CC)CC)c(CC)nc1Nc1ncc(Cl)cc1Cl`, for which the Ki was 0.115 µM.

`CCOCC(Nc1nc(CC)c(Oc2cc(C)ccn2)nc1CC)c1ccccc1` (centres undefined) displayed a Ki of 0.384 µM.

As for `CCc1nc(Oc2cc(C)ccn2)c(CC)nc1NC(CC)CC`, the Ki is greater than 10 µM.

Consider `CCO[C@@H]1Cc2ccccc2[C@@H]1Nc1nc(CC)c(Oc2cc(C)ccn2)nc1CC`, for which the Ki was greater than 10 µM.

In the case of `CCc1nc(Oc2cc(C)ccn2)c(CC)nc1N[C@@H]1c2ccccc2C[C@@H]1OC(C)=O`, affinity was put at a Ki of 2.02 µM.

Turning to `CCO[C@@H]1Cc2ccccc2[C@H]1Nc1nc(CC)c(Oc2cc(C)ccn2)nc1CC`, the Ki was greater than 10 µM.

Molecule `CCCO[C@H]1Cc2ccccc2[C@H]1Nc1nc(CC)c(Oc2cc(C)ccn2)nc1CC` came in with a Ki of 0.03 µM.

Molecule `CCc1nc(NC(CC)CC)c(CC)nc1Nc1ccccn1` yielded a Ki greater than 10 µM.

`CCO[C@H]1Cc2ccccc2[C@@H]1Nc1nc(CC)c(Oc2cc(C)ccn2)nc1CC`: the Ki stood at 5.47 µM.

On to `CCCN(CCC)c1nc(CC)c(Oc2cc(C)ccn2)nc1CC`, for which the affinity corresponds to a Ki of 0.711 µM.

Take `CCO[C@H]1Cc2ccccc2[C@H]1Nc1nc(CC)c(Oc2ncccc2C)nc1CC`: the Ki was determined as 0.509 µM.

For the molecule `CCc1nc(NC(CC)CC)c(CC)nc1Nc1cccc(C)n1`, the affinity corresponds to a Ki of 3.38 µM.

For `CCc1nc(N[C@@H]2c3ccccc3C[C@@H]2OCCF)c(CC)nc1Nc1ncc(Cl)cc1Cl`, the Ki amounted to 1.73 µM.

Regarding `CCc1nc(NC(CC)c2ccccc2)c(CC)nc1Nc1ncc(Cl)cc1Cl` (centres undefined), the inhibitory constant (Ki) was greater than 10 µM.

The molecule `CCc1nc(Oc2cc(C)ccn2)c(CC)nc1N[C@H]1c2ccccc2C[C@H]1O` had a Ki greater than 10 µM.

Consider `CCO[C@H]1Cc2ccccc2[C@H]1Nc1nc(CC)c(Oc2cccc(C)n2)nc1CC`, for which the Ki was found to be 0.472 µM.
